These results are taken from patent US20170050966A1, “INHIBITING THE TRANSIENT RECEPTOR POTENTIAL A1 ION CHANNEL” (HYDRA BIOSCIENCES, INC., priority 2014, published 2017).

In general, inhibition refers to the share of the control response that was lost under treatment. A word on the fraction unbound: it is free concentration divided by total concentration. Low values mean extensive binding, high ones weak binding.

In one data set the target is T1, CYP1A2 (Homo sapiens, UniProt P05177).
T1 sequence (P05177 1-516): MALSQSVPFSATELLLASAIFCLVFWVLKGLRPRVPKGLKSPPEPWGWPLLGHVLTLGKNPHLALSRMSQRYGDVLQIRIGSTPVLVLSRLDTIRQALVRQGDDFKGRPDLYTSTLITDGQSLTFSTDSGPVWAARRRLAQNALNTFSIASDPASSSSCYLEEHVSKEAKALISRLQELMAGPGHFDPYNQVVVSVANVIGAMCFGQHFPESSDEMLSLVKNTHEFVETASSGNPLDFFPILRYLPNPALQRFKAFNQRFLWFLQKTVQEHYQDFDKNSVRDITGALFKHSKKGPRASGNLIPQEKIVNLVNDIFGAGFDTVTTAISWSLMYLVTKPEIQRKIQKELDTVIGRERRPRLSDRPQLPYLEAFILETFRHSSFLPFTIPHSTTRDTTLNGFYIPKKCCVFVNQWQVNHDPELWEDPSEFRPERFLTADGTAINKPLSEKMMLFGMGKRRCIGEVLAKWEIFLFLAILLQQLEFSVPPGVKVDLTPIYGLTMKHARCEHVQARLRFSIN
In words: CYP450 inhibition at 10 μM. The following applies: 1A2, substrate Phenacetin. Format: biochemical.

The next data set addresses CYP2C19 (Homo sapiens, UniProt P33261). Kind of data set: in vitro. The following applies: probe Mephenytoin.
The next data set addresses CYP2C8 (Homo sapiens, UniProt P10632). In words: in vitro. The conditions noted are these: probe Amodiaquine.
The target in another data set is CYP2D6 (Homo sapiens, UniProt P10635). Kind of data set: in vitro.
Another data set deals with CYP2C9 (Homo sapiens, UniProt P11712). In words: in vitro.
In another data set the target is CYP2B6 (Homo sapiens, UniProt P20813). Kind of data set: in vitro. The conditions noted are these: probe Buproprion.
A further data set is described as follows: in vitro. The conditions noted are these: plasma. The procedure:
With this method, free compound is separated from protein-bound compound by dialysis across a semi-permeable membrane.
The protein binding was tested at a concentration of 1 μM. Pooled human, cynomolgus monkey, dog, and rat K2EDTA plasma was thawed and centrifuged at 2000×g for 10 minutes at 4° C. to remove particulates; any lipid on the top of the supernatant was also removed by aspiration. The plasma was warmed to 37° C. for 10 minutes before use. Test compounds were spiked into 2 ml plasma in a polypropylene plate to a final concentration of 1 μM. Triplicate 400 μl aliquots of spiked plasma were transferred into the Thermo RED dialysis units and dialyzed against 600 μl of PBS buffer. […] After 6 hours dialysis, triplicate 50 μl aliquots were removed from the RED plate, matrix-matched with either PBS buffer or blank plasma, as appropriate, and quenched with 4 volumes of ACN containing an internal standard. The extracted samples were then centrifuged at 2000×g for 5 minutes at 4° C. The supernatant (50 μl) was removed and diluted with 100 μl water prior to LC/MS/MS bioanalysis.

Chain of CYP2C19 (P33261 whole entry): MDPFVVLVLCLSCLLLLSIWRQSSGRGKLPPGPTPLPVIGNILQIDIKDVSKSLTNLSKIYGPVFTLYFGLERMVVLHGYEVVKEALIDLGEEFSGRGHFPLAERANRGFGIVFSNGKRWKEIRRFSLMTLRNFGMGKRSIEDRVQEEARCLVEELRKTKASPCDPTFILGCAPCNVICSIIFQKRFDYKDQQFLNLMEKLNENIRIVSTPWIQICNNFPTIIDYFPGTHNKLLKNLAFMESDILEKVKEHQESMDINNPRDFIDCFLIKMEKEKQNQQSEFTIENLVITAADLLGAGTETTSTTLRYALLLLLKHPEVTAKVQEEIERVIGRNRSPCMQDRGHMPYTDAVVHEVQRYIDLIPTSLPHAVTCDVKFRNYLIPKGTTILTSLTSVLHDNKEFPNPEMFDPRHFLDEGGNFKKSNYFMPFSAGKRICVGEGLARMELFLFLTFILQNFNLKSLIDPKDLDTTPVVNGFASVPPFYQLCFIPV
Chain of CYP2B6 (P20813 whole entry): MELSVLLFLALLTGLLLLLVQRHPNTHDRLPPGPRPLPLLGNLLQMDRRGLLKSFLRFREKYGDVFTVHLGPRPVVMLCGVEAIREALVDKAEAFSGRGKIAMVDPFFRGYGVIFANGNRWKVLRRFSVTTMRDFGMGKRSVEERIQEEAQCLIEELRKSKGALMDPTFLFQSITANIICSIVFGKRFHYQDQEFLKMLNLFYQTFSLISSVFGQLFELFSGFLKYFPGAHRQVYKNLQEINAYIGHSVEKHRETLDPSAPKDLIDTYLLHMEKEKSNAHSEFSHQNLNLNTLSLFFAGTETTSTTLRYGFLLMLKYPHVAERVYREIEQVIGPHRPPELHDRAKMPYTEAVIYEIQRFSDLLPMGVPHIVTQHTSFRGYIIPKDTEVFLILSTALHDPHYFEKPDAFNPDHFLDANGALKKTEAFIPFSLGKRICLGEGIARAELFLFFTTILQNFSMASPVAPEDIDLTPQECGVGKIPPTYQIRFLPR
Chain of CYP2C9 (P11712 whole entry): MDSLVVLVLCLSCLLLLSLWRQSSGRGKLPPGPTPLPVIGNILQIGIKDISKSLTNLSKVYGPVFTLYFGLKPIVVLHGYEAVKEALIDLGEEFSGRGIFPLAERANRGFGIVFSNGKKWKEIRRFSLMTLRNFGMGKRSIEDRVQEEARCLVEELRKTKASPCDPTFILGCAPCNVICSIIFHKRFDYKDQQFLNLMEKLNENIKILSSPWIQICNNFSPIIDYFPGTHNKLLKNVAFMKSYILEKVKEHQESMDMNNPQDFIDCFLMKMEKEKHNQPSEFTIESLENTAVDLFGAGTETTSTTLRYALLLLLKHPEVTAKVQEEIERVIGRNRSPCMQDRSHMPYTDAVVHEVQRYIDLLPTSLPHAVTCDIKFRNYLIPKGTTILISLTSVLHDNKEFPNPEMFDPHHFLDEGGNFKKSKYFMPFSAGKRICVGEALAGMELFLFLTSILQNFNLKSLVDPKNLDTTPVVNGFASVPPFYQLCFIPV
Chain of CYP2D6 (P10635 whole entry): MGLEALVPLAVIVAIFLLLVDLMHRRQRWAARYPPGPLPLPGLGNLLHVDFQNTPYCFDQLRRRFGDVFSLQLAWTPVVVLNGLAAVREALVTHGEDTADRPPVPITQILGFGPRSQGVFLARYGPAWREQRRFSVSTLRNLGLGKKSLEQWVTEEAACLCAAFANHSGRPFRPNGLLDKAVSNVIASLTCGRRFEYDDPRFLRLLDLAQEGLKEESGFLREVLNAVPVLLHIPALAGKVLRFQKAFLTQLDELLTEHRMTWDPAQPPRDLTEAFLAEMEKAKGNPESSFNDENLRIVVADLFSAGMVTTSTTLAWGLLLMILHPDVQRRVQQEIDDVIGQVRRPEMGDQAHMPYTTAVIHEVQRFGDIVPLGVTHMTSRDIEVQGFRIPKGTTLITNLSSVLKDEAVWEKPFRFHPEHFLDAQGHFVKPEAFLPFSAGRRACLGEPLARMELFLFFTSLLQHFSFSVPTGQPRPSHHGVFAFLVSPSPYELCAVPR
Chain of CYP2C8 (P10632 whole entry): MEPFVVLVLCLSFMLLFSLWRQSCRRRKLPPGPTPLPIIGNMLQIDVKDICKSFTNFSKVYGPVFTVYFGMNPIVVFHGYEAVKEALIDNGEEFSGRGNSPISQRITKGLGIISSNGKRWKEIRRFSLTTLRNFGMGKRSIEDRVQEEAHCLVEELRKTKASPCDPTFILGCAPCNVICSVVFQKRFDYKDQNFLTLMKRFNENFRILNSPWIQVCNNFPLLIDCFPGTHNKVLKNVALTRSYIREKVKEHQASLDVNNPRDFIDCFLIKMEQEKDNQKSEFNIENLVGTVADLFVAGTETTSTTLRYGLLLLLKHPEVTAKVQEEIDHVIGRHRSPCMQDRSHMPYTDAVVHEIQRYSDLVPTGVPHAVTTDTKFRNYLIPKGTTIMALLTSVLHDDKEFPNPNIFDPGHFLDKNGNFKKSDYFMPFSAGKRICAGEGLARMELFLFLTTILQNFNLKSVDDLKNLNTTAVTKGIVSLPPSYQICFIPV

As to `COCCCC/C(=N\OCCN)c1ccc(C(F)(F)F)cc1` [Fluvoxamine, reference compound], at 10 µM the inhibition at CYP1A2 was 96.6%. As to `COc1ccc2[nH]c([S+]([O-])Cc3ncc(C)c(OC)c3C)nc2c1` (centres unmarked) [Omeprazole, reference compound], the inhibition at 10 µM at CYP2C19 is 68.2%. `O=c1c(O)c(-c2ccc(O)c(O)c2)oc2cc(O)cc(O)c12` [Quercetin, reference compound]: the inhibition at 10 µM against CYP2C8 stood at 61.5%. On CYP2D6, `C=C[C@H]1C[N@@]2CC[C@H]1C[C@@H]2[C@@H](O)c1ccnc2ccc(OC)cc12` [Quinidine, reference compound] displayed an inhibition at 1 μM of 55.8%.

At CYP2C9, `Nc1ccc(S(=O)(=O)Nc2ccnn2-c2ccccc2)cc1` [Sulfaphenazole, reference compound] returned an inhibition at 10 µM of 95.3%. `Clc1ccccc1CN1CCc2sccc2C1` [Ticlopidine, reference compound] registered an inhibition at 10 µM at CYP2B6 of 98.2%. For the compound `CC(=O)CC(c1ccccc1)c1c(O)c2ccccc2oc1=O` (centres unmarked) [Warfarin, reference compound], the unbound share (fraction unbound) at 6 h, 1 μM in “in vitro” (beagle, dog) was 0.065; in the data set “in vitro” (cynomolgus monkey), 0.011.
